Laboratory results taken from the NIST ThermoML archive (doi:10.1016/j.jct.2018.05.027).

Test: xn = mol fraction of the nth substance listed
Conditions: Liquid, Vibrating wire viscometry

CCC(C)O (stereo not drawn) [butan-2-ol] + CC(C)CC(C)(C)C
viscosity [mPa·s]
Conditions	293.15 K	298.15 K	313.15 K	333.15 K	353.15 K
100 kPa, x1 = 0.2999	0.6047	–	0.4647	0.3574	0.2785
100 kPa, x1 = 0.5001	0.7922	–	0.5643	0.4132	0.3272
100 kPa, x1 = 0.7996	1.673	–	0.9784	0.6203	0.4165
100 kPa, x1 = 1	3.767	3.102	1.839	1.007	0.6198
1000 kPa, x1 = 0.2999	0.609	–	0.4677	0.3614	0.2825
1000 kPa, x1 = 0.5001	0.797	–	0.5722	0.4166	0.333
1000 kPa, x1 = 0.7996	1.707	–	0.9858	0.631	0.4213
1000 kPa, x1 = 1	3.813	3.123	1.862	1.023	0.6273
5000 kPa, x1 = 0.2999	0.6391	–	0.4936	0.3814	0.2981
5000 kPa, x1 = 0.5001	0.8463	–	0.6074	0.4455	0.349
5000 kPa, x1 = 0.7996	1.793	–	1.043	0.6669	0.4405
5000 kPa, x1 = 1	3.978	3.28	1.947	1.078	0.6577
10000 kPa, x1 = 0.2999	0.6863	–	0.5264	0.4083	0.3222
10000 kPa, x1 = 0.5001	0.8968	–	0.6501	0.4682	0.373
10000 kPa, x1 = 0.7996	1.913	–	1.11	0.7064	0.4671
10000 kPa, x1 = 1	4.235	3.462	2.041	1.133	0.6999
20000 kPa, x1 = 0.2999	0.7692	–	0.5924	0.4584	0.3642
20000 kPa, x1 = 0.5001	1	–	0.7349	0.5293	0.4151
20000 kPa, x1 = 0.7996	2.14	–	1.253	0.7854	0.5216
20000 kPa, x1 = 1	4.696	3.873	2.262	1.254	0.7717
30000 kPa, x1 = 0.2999	0.8642	–	0.6612	0.5124	0.4069
30000 kPa, x1 = 0.5001	1.131	–	0.8188	0.6041	0.4619
30000 kPa, x1 = 0.7996	2.395	–	1.4	0.8701	0.5729
30000 kPa, x1 = 1	5.159	4.253	2.503	1.372	0.8354
40000 kPa, x1 = 0.2999	0.9608	–	0.7328	0.5669	0.4472
40000 kPa, x1 = 0.5001	1.247	–	0.9032	0.6689	0.5088
40000 kPa, x1 = 0.7996	2.683	–	1.559	0.9706	0.6309
40000 kPa, x1 = 1	5.693	4.697	2.734	1.491	0.9088
50000 kPa, x1 = 0.2999	1.065	–	0.8134	0.6217	0.4904
50000 kPa, x1 = 0.5001	1.385	–	0.987	0.7304	0.5576
50000 kPa, x1 = 0.7996	2.993	–	1.707	1.07	0.6907
50000 kPa, x1 = 1	6.274	5.142	2.99	1.624	0.9898
60000 kPa, x1 = 0.2999	1.173	–	0.8859	0.6795	0.54
60000 kPa, x1 = 0.5001	1.541	–	1.082	0.7967	0.6147
60000 kPa, x1 = 0.7996	3.276	–	1.869	1.172	0.7546
60000 kPa, x1 = 1	6.831	5.553	3.237	1.759	1.07
70000 kPa, x1 = 0.2999	1.282	–	0.9597	0.7435	0.5886
70000 kPa, x1 = 0.5001	1.7	–	1.179	0.8604	0.6678
70000 kPa, x1 = 0.7996	3.645	–	2.049	1.271	0.8214
70000 kPa, x1 = 1	7.377	6.044	3.558	1.905	1.151
80000 kPa, x1 = 0.2999	1.395	–	1.04	0.8018	0.6326
80000 kPa, x1 = 0.5001	1.853	–	1.272	0.9339	0.7221
80000 kPa, x1 = 0.7996	3.939	–	2.23	1.387	0.8973
80000 kPa, x1 = 1	8.056	6.544	3.841	2.081	1.242
100000 kPa, x1 = 0.2999	1.66	–	1.223	0.9315	0.7318
100000 kPa, x1 = 0.5001	2.169	–	1.509	1.089	0.8402
100000 kPa, x1 = 0.7996	4.702	–	2.621	1.613	1.046
100000 kPa, x1 = 1	9.598	7.646	4.456	2.427	1.444
120000 kPa, x1 = 0.2999	1.925	–	1.414	1.057	0.8276
120000 kPa, x1 = 0.5001	2.516	–	1.74	1.236	0.9461
120000 kPa, x1 = 0.7996	5.445	–	3.051	1.831	1.206
120000 kPa, x1 = 1	11.31	9.053	5.179	2.716	1.644
140000 kPa, x1 = 0.2999	2.24	–	1.598	1.196	0.9377
140000 kPa, x1 = 0.5001	2.913	–	1.973	1.408	1.069
140000 kPa, x1 = 0.7996	6.323	–	3.552	2.083	1.367
140000 kPa, x1 = 1	13.38	10.43	5.933	3.099	1.845
